Assay: Cell-Based Assay of NHE-3 Activity: Rat NHE-3-mediated Na+-dependent H+ antiport was measured using a modification of the pH sensitive dye method originally reported by Tsien (Proc. Natl. Acad. Sci. USA. (1984) 81(23): 7436-7440). Opossum kidney (OK) cells were obtained from the ATCC and propagated per their instructions. The rat NHE-3 gene was introduced into OK cells via electroporation, seeded into 96 well plates and grown overnight. Medium was aspirated from the wells, cells were washed twice with NaCl-HEPES buffer (100 mM NaCl, 50 mM HEPES, 10 mM glucose, 5 mM KCl, 2 mM CaCl2, 1 mM MgCl2, pH 7.4), then incubated for 30 min at room temperature with NH4Cl-HEPES buffer (20 mM NH4Cl, 80 mM NaCl, 50 mM HEPES, 5 mM KCl, 2 mM CaCl2, 1 mM MgCl2, pH 7.4) containing 5 uM BCECF-AM (Invitrogen). Cells were washed twice with Ammonium free, Na+-free HEPES (100 mM choline, 50 mM HEPES, 10 mM glucose, 5 mM KCl, 2 mM CaCl2, 1 mM MgCl2, pH 7.4) and incubated in the same buffer for 10 minutes at room temperature to lower intracellular pH. […] Initial rates were plotted as the average 3-6 replicates, and pIC50 values were estimated using GraphPad Prism.

| SMILES | IC50 |
| --- | --- |
| CN1Cc2c(Cl)cc(Cl)cc2C(c2cccc(S(=O)(=O)NCCOCCOCCOCCNC(=O)C(O)C(O)C(=O)NCCOCCOCCOCCNS(=O)(=O)c3cccc(C4CN(C)Cc5c(Cl)cc(Cl)cc54)c3)c2)C1 (stereo not given) | < 100 nM |
| CN1Cc2c(Cl)cc(Cl)cc2C(c2ccc(S(=O)(=O)NCCOCCOCCOCCNC(=O)C(O)C(O)C(=O)NCCOCCOCCOCCNS(=O)(=O)c3ccc(C4CN(C)Cc5c(Cl)cc(Cl)cc54)cc3)cc2)C1 (stereo not given) | < 100 nM |
| C/C(=C\c1cc(F)c(Oc2ccc(S(=O)(=O)NCCOCCOCCOCCOCCOCCOCCN)cc2)c(F)c1)C(=O)N=C(N)N | in the range around 316 nM |
| CN1Cc2c(Cl)cc(Cl)cc2C(c2cccc(S(=O)(=O)NCCOCCOCCOCCNC(=O)c3cc(C(=O)NCCOCCOCCOCCNS(=O)(=O)c4cccc(C5CN(C)Cc6c(Cl)cc(Cl)cc65)c4)cc(C(=O)NCCOCCOCCOCCNS(=O)(=O)c4cccc(C5CN(C)Cc6c(Cl)cc(Cl)cc65)c4)c3)c2)C1 (stereo not given) | < 100 nM |
| CN1Cc2c(Cl)cc(Cl)cc2[C@H](c2ccc(S(=O)(=O)NCCOCCOCCNC(=O)COCC(=O)NCCOCCOCCNS(=O)(=O)c3ccc([C@@H]4CN(C)Cc5c(Cl)cc(Cl)cc54)cc3)cc2)C1 (single isomer, unassigned) | < 100 nM |
| CN1Cc2c(Cl)cc(Cl)cc2C(c2cccc(S(=O)(=O)NCCOCCOCCNC(=O)C(C)(C)C(=O)NCCOCCOCCNS(=O)(=O)c3cccc(C4CN(C)Cc5c(Cl)cc(Cl)cc54)c3)c2)C1 (stereo not given) | in the range around 3160 nM |
| NC(N)=Nc1nc(-c2ccc(N3CCN(CCO)CC3)cc2)c2cc(Cl)ccc2n1 | in the range around 316 nM |
| NCCCN1CCN(c2cccc(-c3nc(N=C(N)N)nc4ccc(Cl)cc34)c2)CC1 | in the range around 316 nM |
| CN1Cc2c(Cl)cc(Cl)cc2C(c2cccc(S(=O)(=O)NCCOCCOCCNC(=O)c3ccc(C(=O)NCCOCCOCCNS(=O)(=O)c4cccc(C5CN(C)Cc6c(Cl)cc(Cl)cc65)c4)cc3)c2)C1 (stereo not given) | in the range around 3160 nM |
| CN1Cc2c(Cl)cc(Cl)cc2[C@H](c2cccc(S(=O)(=O)NCCOCCOCCNC(=O)Nc3ccc(NC(=O)NCCOCCOCCNS(=O)(=O)c4cccc([C@@H]5CN(C)Cc6c(Cl)cc(Cl)cc65)c4)cc3)c2)C1 (single isomer, unassigned) | < 100 nM |
| CN1Cc2c(Cl)cc(Cl)cc2C(c2cccc(S(=O)(=O)NCCOCCOCCOCCNS(=O)(=O)c3cccc(S(=O)(=O)NCCOCCOCCOCCNS(=O)(=O)c4cccc(C5CN(C)Cc6c(Cl)cc(Cl)cc65)c4)c3)c2)C1 (stereo not given) | in the range around 3160 nM |
| CN1Cc2c(Cl)cc(Cl)cc2C(c2ccc(NS(=O)(=O)NCCP(=O)(O)O)cc2)C1 (stereo not given) | in the range around 3160 nM |
| CN1Cc2c(Cl)cc(Cl)cc2C(c2ccc(S(=O)(=O)NCCOCCOCCNC(=O)c3ccc(C(=O)NCCOCCOCCNS(=O)(=O)c4ccc(C5CN(C)Cc6c(Cl)cc(Cl)cc65)cc4)cc3)cc2)C1 (stereo not given) | < 10000 nM |
| NC(N)=NCCCN1CCN(c2cccc(-c3nc(N=C(N)N)nc4ccc(Cl)cc34)c2)CC1 | in the range around 316 nM |
| CN1Cc2c(Cl)cc(Cl)cc2C(c2cccc(S(=O)(=O)NCCOCCOCCOCCNC(=O)c3ccccc3C(=O)NCCOCCOCCOCCNS(=O)(=O)c3cccc(C4CN(C)Cc5c(Cl)cc(Cl)cc54)c3)c2)C1 (stereo not given) | < 100 nM |
| N=C(N)N1CCN(c2ccc(-c3nc(N=C(N)N)nc4ccc(Cl)cc34)cc2)CC1 | in the range around 316 nM |
| CN1Cc2c(Cl)cc(Cl)cc2C(c2cccc(S(=O)(=O)NCCOCCOCCOCCNC(=O)NCCOCCOCCOCCNS(=O)(=O)c3cccc(C4CN(C)Cc5c(Cl)cc(Cl)cc54)c3)c2)C1 (stereo not given) | in the range around 316 nM |
| CN1Cc2c(Cl)cc(Cl)cc2C(c2cccc(S(=O)(=O)NCCOCCOCCOCCNC(=O)[C@@H](O)[C@@H](O)C(=O)NCCOCCOCCOCCNS(=O)(=O)c3cccc(C4CN(C)Cc5c(Cl)cc(Cl)cc54)c3)c2)C1 (stereo not given in full) | < 100 nM |
| CN1Cc2c(Cl)cc(Cl)cc2C(c2ccc(S(=O)(=O)NCCOCCOCCNC(=O)NCCOCCOCCNS(=O)(=O)c3ccc(C4CN(C)Cc5c(Cl)cc(Cl)cc54)cc3)cc2)C1 (stereo not given) | < 10000 nM |
| CN1Cc2c(Cl)cc(Cl)cc2C(c2cccc(S(=O)(=O)NCCOCCOCCNC(=O)COCC(=O)NCCOCCOCCNS(=O)(=O)c3cccc(C4CN(C)Cc5c(Cl)cc(Cl)cc54)c3)c2)C1 (stereo not given) | < 100 nM |
| CN1Cc2c(Cl)cc(Cl)cc2C(c2cccc(S(=O)(=O)NCCOCCOCCNC(=O)NCCCCNC(=O)NCCOCCOCCNS(=O)(=O)c3cccc(C4CN(C)Cc5c(Cl)cc(Cl)cc54)c3)c2)C1 (stereo not given) | < 100 nM |
| O=C(CNCc1ccc(Cl)cc1Cl)c1cccc([N+](=O)[O-])c1 | < 10000 nM |
| CN1Cc2c(Cl)cc(Cl)cc2C(c2cccc(S(=O)(=O)NCCOCCOCCOCCNC(=O)CN(CC(=O)NCCOCCOCCOCCNS(=O)(=O)c3cccc(C4CN(C)Cc5c(Cl)cc(Cl)cc54)c3)CC(=O)NCCOCCOCCOCCNS(=O)(=O)c3cccc(C4CN(C)Cc5c(Cl)cc(Cl)cc54)c3)c2)C1 (stereo not given) | in the range around 316 nM |

| SMILES | IC50 |
| --- | --- |
| CN1Cc2c(Cl)cc(Cl)cc2C(c2cccc(S(=O)(=O)NCCOCCOCCNC(=O)Nc3ccc(NC(=O)NCCOCCOCCNS(=O)(=O)c4cccc(C5CN(C)Cc6c(Cl)cc(Cl)cc65)c4)cc3)c2)C1 (stereo not given) | < 100 nM |
| CN1Cc2c(Cl)cc(Cl)cc2C(c2ccc(S(=O)(=O)NCCOCCOCCOCCNC(=O)NCCOCCOCCOCCNS(=O)(=O)c3ccc(C4CN(C)Cc5c(Cl)cc(Cl)cc54)cc3)cc2)C1 (stereo not given) | < 100 nM |
| CN1Cc2c(Cl)cc(Cl)cc2C(c2ccc(S(=O)(=O)NCCOCCOCCNC(=O)C(O)C(O)C(=O)NCCOCCOCCNS(=O)(=O)c3ccc(C4CN(C)Cc5c(Cl)cc(Cl)cc54)cc3)cc2)C1 (stereo not given) | < 100 nM |
| CN1Cc2c(Cl)cc(Cl)cc2C(c2cccc(S(=O)(=O)NCCOCCOCCNC(=O)[C@H](O)[C@@H](O)C(=O)NCCOCCOCCNS(=O)(=O)c3cccc(C4CN(C)Cc5c(Cl)cc(Cl)cc54)c3)c2)C1 (stereo not given in full) | in the range around 316 nM |
| CN1Cc2c(Cl)cc(Cl)cc2C(c2cccc(S(=O)(=O)NCCOCCOCCOCCNC(=O)CCCCCCC(=O)NCCOCCOCCOCCNS(=O)(=O)c3cccc(C4CN(C)Cc5c(Cl)cc(Cl)cc54)c3)c2)C1 (stereo not given) | in the range around 316 nM |
| CN1Cc2c(Cl)cc(Cl)cc2C(c2cccc(S(=O)(=O)NCCOCCOCCOCCn3cc(COCc4cn(CCOCCOCCOCCNS(=O)(=O)c5cccc(C6CN(C)Cc7c(Cl)cc(Cl)cc76)c5)nn4)nn3)c2)C1 (stereo not given) | < 100 nM |
| CN1Cc2c(Cl)cc(Cl)cc2C(c2cccc(S(=O)(=O)NCCOCCOCCNC(=O)NCCOCCOCCNS(=O)(=O)c3cccc(C4CN(C)Cc5c(Cl)cc(Cl)cc54)c3)c2)C1 (stereo not given) | < 10000 nM |
| CN1Cc2c(Cl)cc(Cl)cc2C(c2cccc(S(=O)(=O)NCCOCCOCCOCCNC(=O)c3ccc(C(=O)NCCOCCOCCOCCNS(=O)(=O)c4cccc(C5CN(C)Cc6c(Cl)cc(Cl)cc65)c4)cc3)c2)C1 (stereo not given) | < 100 nM |
| CN1Cc2c(Cl)cc(Cl)cc2C(c2cccc(S(=O)(=O)NCCOCCOCCOCCOCCOCCOCCOCCOCCOCCOCCNC(=O)CCOCCOCCOCCOCCOCCOCCOCCOCCOCCC(=O)NCCOCCOCCOCCOCCOCCOCCOCCOCCOCCOCCNS(=O)(=O)c3cccc(C4CN(C)Cc5c(Cl)cc(Cl)cc54)c3)c2)C1 (stereo not given) | in the range around 316 nM |
| NC(N)=Nc1nc(-c2cccc(N3CCN(CCO)CC3)c2)c2cc(Cl)ccc2n1 | in the range around 316 nM |
| CN1Cc2c(Cl)cc(Cl)cc2C(c2cccc(S(=O)(=O)NCCOCCOCCOCCNC(=O)c3cccc(C(=O)NCCOCCOCCOCCNS(=O)(=O)c4cccc(C5CN(C)Cc6c(Cl)cc(Cl)cc65)c4)c3)c2)C1 (stereo not given) | in the range around 316 nM |
| CN1Cc2c(Cl)cc(Cl)cc2C(c2ccc(S(=O)(=O)NCCOCCOCCOCCNC(=O)c3ccc(C(=O)NCCOCCOCCOCCNS(=O)(=O)c4ccc(C5CN(C)Cc6c(Cl)cc(Cl)cc65)cc4)cc3)cc2)C1 (stereo not given) | < 10000 nM |
| C/C(=C\c1cc(F)c(Oc2ccc(S(=O)(=O)NCCOCCOCCOCCNC(=O)CCCCCCC(=O)NCCOCCOCCOCCNS(=O)(=O)c3ccc(Oc4c(F)cc(/C=C(\C)C(=O)N=C(N)N)cc4F)cc3)cc2)c(F)c1)C(=O)N=C(N)N | < 100 nM |
| C/C(=C\c1cc(F)c(Oc2ccc(S(=O)(=O)NCCOCCOCCOCCN)cc2)c(F)c1)C(=O)N=C(N)N | in the range around 316 nM |
| CN1Cc2c(Cl)cc(Cl)cc2[C@H](c2ccc(S(=O)(=O)NCCOCCOCCOCCNC(=O)NCCOCCOCCOCCNS(=O)(=O)c3ccc([C@@H]4CN(C)Cc5c(Cl)cc(Cl)cc54)cc3)cc2)C1 (single isomer, unassigned) | < 100 nM |
| CN1Cc2c(Cl)cc(Cl)cc2[C@H](c2ccc(S(=O)(=O)NCCOCCOCCOCCNC(=O)NCCCCNC(=O)NCCOCCOCCOCCNS(=O)(=O)c3ccc([C@@H]4CN(C)Cc5c(Cl)cc(Cl)cc54)cc3)cc2)C1 (single isomer, unassigned) | < 100 nM |
| CN1Cc2c(Cl)cc(Cl)cc2C(c2ccc(S(=O)(=O)NCCOCCOCCNC(=O)[C@H](O)[C@@H](O)C(=O)NCCOCCOCCNS(=O)(=O)c3ccc(C4CN(C)Cc5c(Cl)cc(Cl)cc54)cc3)cc2)C1 (stereo not given in full) | in the range around 316 nM |
| CN1Cc2c(Cl)cc(Cl)cc2C(c2cccc(S(=O)(=O)NCCOCCOCCOCCNC(=O)NCCCCNC(=O)NCCOCCOCCOCCNS(=O)(=O)c3cccc(C4CN(C)Cc5c(Cl)cc(Cl)cc54)c3)c2)C1 (stereo not given) | < 100 nM |
| CN1Cc2c(Cl)cc(Cl)cc2C(c2cccc(S(=O)(=O)NCCOCCOCCOCCNC(=O)[C@@H](O)[C@H](O)C(=O)NCCOCCOCCOCCNS(=O)(=O)c3cccc(C4CN(C)Cc5c(Cl)cc(Cl)cc54)c3)c2)C1 (stereo not given in full) | < 100 nM |
| CN1Cc2c(Cl)cc(Cl)cc2C(c2cccc(S(=O)(=O)NCCOCCOCCOCCNC(=O)Nc3ccc(NC(=O)NCCOCCOCCOCCNS(=O)(=O)c4cccc(C5CN(C)Cc6c(Cl)cc(Cl)cc65)c4)cc3)c2)C1 (stereo not given) | in the range around 3160 nM |
| C/C(=C\c1cc(F)c(Oc2ccc(S(=O)(=O)NCCCP(=O)(O)O)cc2)c(F)c1)C(=O)N=C(N)N | in the range around 3160 nM |
| CN1Cc2c(Cl)cc(Cl)cc2C(c2cccc(S(=O)(=O)NCCOCCOCCNC(=O)CCC(=O)NCCOCCOCCNS(=O)(=O)c3cccc(C4CN(C)Cc5c(Cl)cc(Cl)cc54)c3)c2)C1 (stereo not given) | < 100 nM |

Reference: ChEMBL document CHEMBL5727484, “Compounds and methods for inhibiting NHE-mediated antiport in the treatment of disorders associated with fluid retention or salt overload and gastrointestinal tract disorders” (2020)
